From ChEMBL document CHEMBL3507680, “University of Dundee, Gates Library screen for HepG2 cell viability”

test: Human HepG2 cell viability assay in 384 well format; type: toxicity, cell-based; parameters: dose 125 nL, time 70.5 hour; concentration not given beside the values; settings: HepG2 cells, read-out: Inhibition

SMILES	cytotoxicity at 70.5 h [%]
COc1ccc2c(c1)NC(C1CCN(C(=O)C(C)C)CC1)NS2(=O)=O (stereo not drawn)	-3.05
Cc1nn(C2CCCCC2)c2nc(C(C)(C)CN3CCOCC3)[nH]c12	-6.99
Fc1cnc(N2CC[C@@H]3CN(Cc4ccncc4)CCO[C@@H]3C2)nc1	7.83
CC(C)(C)n1cc(NC(=O)C2CN(Cc3ccccc3)CCO2)cn1 (stereo not drawn)	-0.308
Cn1ccc(NC(=O)CN2CCC(Oc3cnccn3)CC2)n1	1.93
Nc1ncc(-c2cccc(NC(=O)[C@@H]3CCCCN3)c2)cn1	-4.27
CCn1cncc1CN1CCN(CC2(c3ccc(C)cc3)CC2)CC1	12
N#Cc1ccccc1N1CCCN(C(=O)CCn2cccn2)CC1	-23
CN(CC(=O)N(C)C)Cc1ccc(C#N)cc1F	11.5
CN(Cc1ccccc1NCc1cscn1)C(=O)c1cccs1	-3.79
Cc1ccc(-c2nc(C(=O)N(C)CC(=O)N(C)C)cs2)c(C)c1	20.9
CCc1ncc(CNCc2cccnc2N(C)C)cn1	-12.1
CCCN1CCC(CC(=O)N2CC(C)(C)[C@@](C)(O)C2)CC1	-2.11
CC(C)N1C[C@@H]2OCC(=O)N(Cc3ccccc3)[C@@H]2C1	-10.2
COCC1CN(C(=O)C2=CCCCC2)Cc2cnn(CC3CC3)c21 (stereo not drawn)	-2.03
Cc1nnc(N2C[C@@H]3CCCO[C@@H]3[C@H](N3CCCC3=O)C2)s1	-9.55
CCC(=O)Nc1cccc(OCC(=O)N(C)CCCC2CCCO2)c1 (stereo not drawn)	-3.54
NC(=O)N1CCC(C(=O)NCc2nncn2-c2ccccc2)CC1	1.01
Cc1ccc(C(=O)O)cc1S(=O)(=O)N(CC(C)O)c1ccccc1 (stereo not drawn)	-16.2
CC(C)c1cc(C2CCCN2C(=O)CN2C(=O)OC(C)(C)C2=O)no1 (stereo not drawn)	-9.43
CCCOc1cccc(NS(=O)(=O)c2cc(C(=O)O)cs2)c1	4.51
CC(Cn1cncn1)NC(=O)Nc1ccc(COC2CCCC2)cc1 (stereo not drawn)	-1.86
CC(C)(C)OC(=O)NCCc1csc(N2CCCC2)n1	-3.27

SMILES	cytotoxicity at 70.5 h [%]
c1cnc(N2CC3(CCN(Cc4cccnc4)C3)C2)nc1	9.91
Cn1cc(-c2cnc(N3CCOCC3)nc2)cc1C(=O)N1CCCC1	-27.5
CC(Nc1cccc(CN2CCOC2=O)c1)C(=O)Nc1ccccc1 (stereo not drawn)	-22.1
COc1ccccc1C(NC(=O)NC1CC1)c1noc(C)n1 (stereo not drawn)	-9
CN(C)CCO[C@H]1CN(Cc2ccc3c(c2)OCO3)[C@@H]2COC[C@H]12	-4.2
c1ccc(-c2nc(CN3CCn4c(nnc4C4CC4)C3)co2)cc1	-9.3
CN(C)CCNC(=O)C1Cc2nc(-c3ccccc3)sc2N1CC1CC1 (stereo not drawn)	-11
O=C([C@@H]1CC[C@@H]2[C@@H](CCN2c2ccncn2)O1)N1CCCCO1	-0.768
CCC1c2ccccc2CCN1C(=O)c1ccnc(C(=O)OC)c1 (stereo not drawn)	-1.37
CCCN1CCN(Cc2cccc(OC)c2)[C@H]2CS(=O)(=O)C[C@H]21	25.9
CCOc1ccc(NC(=O)NCCS(=O)(=O)CC)cc1C	-8.96
Cc1cccc(C(=O)NCCCN2CCc3ccccc3C2)c1C	-7.53
CCc1nc(C)c([C@H]2CN(C)C[C@@H]2C(=O)Nc2ccc3[nH]ncc3c2)[nH]1	-5.87
CCc1ccc(CCC(=O)N2CCOCC2c2ncon2)cc1 (stereo not drawn)	-9.85
COCC1CN(Cc2ccc(C)o2)Cc2cn(C)nc21 (stereo not drawn)	3.14
CC(C)(C)c1nc(CN(Cc2ccccc2Cl)C2CCCC2)no1	-2.25
O=C(c1ccoc1)N1CCC2(C1)CN(c1ncc(F)cn1)C2	-0.91
CN(CC1(CO)CCC1)C(=O)c1cc(COc2ccccc2F)[nH]n1	-3.92
CCCSCC(=O)N1CCCC(c2nccn2Cc2ccncc2)C1 (stereo not drawn)	25.6
NC(=O)c1ccc(CN2CCCC(N3CCCCCC3)C2)cc1 (stereo not drawn)	1.67
CC(C)C(=O)N1CCCN(C(=O)NC2CCc3ccccc3C2)CC1 (stereo not drawn)	-4.48
CC(C)COc1cncc(N2CCCN(CC(F)(F)F)CC2)n1	-5.33
Cc1ccc(OCCN(C)S(=O)(=O)c2cnn(C)c2)cc1	-4.35

SMILES	cytotoxicity at 70.5 h [%]
CCS(=O)(=O)CCNC1CCN(c2nc3ccc(Cl)cc3s2)CC1	4.49
Cc1ccc(C(=O)N2CCCCC2CNC(N)=O)cc1F (stereo not drawn)	0.819
Cc1ccccc1CS(=O)(=O)Cc1nc(C2CC2)no1	-3.39
O=C(CCCc1ncc(-c2ccccc2)o1)N1CCN(CCO)CC1	-7.53
COC(CNC(=O)N1CCC(n2cncn2)CC1)c1ccccc1 (stereo not drawn)	6.02
CN(C(=O)c1ccc(Cl)cc1)C1CCN(c2ccccn2)CC1	2.33
CN(Cc1ccc(Cl)cc1)C(=O)Nc1cnn(CC(N)=O)c1	8.79
Cc1cccc(N2CCN(CCNC(=O)c3ccnn3C)CC2)c1	-9.52
CCn1nnnc1-c1cccc(NC(N)=O)c1	-5.79
CCS(=O)(=O)N1CCC2(CC1)CC(Oc1ccccn1)CO2 (stereo not drawn)	-18.2
CCN1CCC(NC(=O)Cn2cc(C)c3ccccc32)CC1	8.33
O=C(CO[C@@H]1CC[C@H]2[C@H]1OCCN2Cc1ccccn1)N1CCCC1	13.4
O=C(NCCCNC(=O)c1cccc(O)c1)Nc1ccc(F)cc1F	-2.92
Cc1ccccc1-c1cncc(C2CCN(CC(=O)N(C)C)CC2)n1	-3.4
Cc1cnc(CN2CCCCC2c2nc(-c3ccccc3)no2)cn1 (stereo not drawn)	-7.59
CCN(CC)CCNC(=O)CCc1c(C)nn(-c2ccccc2Cl)c1C	16.4
OCC1CCCCN1Cc1nc(Cc2ccccc2)no1 (stereo not drawn)	-3.62
CC(=O)NC1CCCN(C(=O)CNc2cccc(C)c2Cl)C1 (stereo not drawn)	21.2
COc1ccc(C2CCCN2C(=O)c2cc3c([nH]c2=O)CCC3)cc1 (stereo not drawn)	-2.02
O=C(Cc1ccccn1)N1CCN2C[C@H](Oc3cccc(F)c3)C[C@H]2C1	33.7
NC(=O)NCC1CCCCN1C(=O)c1ccc(Cl)s1 (stereo not drawn)	-8.02
CC(C)c1cnc(CNc2c(F)cccc2-n2cccn2)o1	-4.44
CCSCc1csc(-c2ccc(S(C)(=O)=O)cc2)n1	-2.67

SMILES	cytotoxicity at 70.5 h [%]
CC(NC(=O)NCCn1ccnc1)c1nncn1C (stereo not drawn)	20.5
CCc1ccsc1C(=O)N1CCN(CC(N)=O)CC1	13.8
O=C(CCN1CCCO1)NC1CCCN(CC2CCCCC2)C1 (stereo not drawn)	-2.41
Cc1cc(C(=O)N2CCc3c(ncnc3N3CCOCC3)C2)[nH]n1	-1.64
Cc1cc(CN(C)C(=O)c2ccc(C(F)(F)F)nc2)no1	-19.6
CCS(=O)(=O)c1ccc(N2CCC(NC(=O)c3cnn(C)c3)CC2)cc1	-4.33
Cc1nsc(NC(=O)NC2(CN3CCCCC3)CCCCC2)n1	-9.47
CCCN1CCC(NN2CCN(C)CC2)CC1	-6.76
Cc1nc(C)n(C2CCCN(C(=O)COc3ccccc3)C2)n1 (stereo not drawn)	-8.86
CC(C)OCc1ncn2c1CN(Cc1ccoc1)CCC2	-11.8
CN(C)CCN1CC(C(=O)NCc2cccc(-n3cccn3)c2)CC1=O (stereo not drawn)	-0.603
Cc1cccc(CN2CCN(C(=O)c3ccc(C)[nH]c3=O)CC2)c1	-7.34
Cc1cccc(-c2nccn2-c2cccc(CC(=O)O)c2)n1	-9.85
CC(=O)NCCNC(=O)c1sc(-c2ccc(C)cc2C)nc1C	0.801
Cn1cc(CN2CCc3ccc(=O)n(CC4CC4)c3CC2)cn1	4.08
Cc1ccc(OCCNc2cccc(C(=O)N3CCOCC3)c2)cc1	23.6
CCc1cc(C(=O)N2CCCn3nc(CCC(=O)O)cc3C2)cs1	-8.44
COCC[C@]1(O)CCN(C(=O)CCc2cnn(C)c2)C[C@H]1C	-7.34
CS(=O)(=O)c1snnc1C1CCN(Cc2ccc3nccnc3c2)CC1	-5.73
Cc1c(C(=O)NC2(C#N)CCSC2)nnn1-c1ccccc1Cl (stereo not drawn)	-5.68
CC(=O)N1CCCC(C(=O)NCCc2ccc(F)c(Br)c2)C1 (stereo not drawn)	-9.08
O=C1CCCCCN1Cc1cccc(OC(F)F)c1	-5.05
Cc1ccc(-c2n[nH]cc2CNCC2CCN(CC(F)(F)F)C2)o1 (stereo not drawn)	-1.74

SMILES	cytotoxicity at 70.5 h [%]
O=C1CCNc2ncc(-c3ccccc3Cl)cc2CN1C1CC1	0.196
CC(=O)N1CCC(c2nccnc2C)CC1	-1.76
CC1CN(C)CCN1C(=O)Cc1cc(Cl)c2c(c1)OCCO2 (stereo not drawn)	-6.51
Cc1ccc(C(=O)N2CC3(CCNCC3)c3cc(Cl)ccc32)cn1	-7.61
COc1ccc2c(ccn2CC(=O)N2CCCC2Cn2cccn2)c1 (stereo not drawn)	3.03
O=C(Cc1ccccn1)N1CC[C@]2(C[C@@H](Oc3ncccc3F)CO2)C1	2.46
COCC1CN(Cc2cccnc2)Cc2nnn(CC3CC3)c21 (stereo not drawn)	19.4
CN(C)C[C@@H]1CN(C(=O)CCC2CCCC2)C[C@@H]1CO	20.2
O=C(CO)N1CC2(CCN(c3ccccc3)C2)C1	-6.59
COCc1cc(CN(C)C(=O)c2c[nH]nc2-c2cccc(F)c2)n[nH]1	19.4
Cc1ccc2c(c1)c(CNC(=O)C1CCN(C(C)C)CC1)nn2C	-14.4
CNc1cc(N2CCCC2CNCc2cccc(C#N)c2)ncn1 (stereo not drawn)	1.28
Cc1ccc(CCNC(=O)CC2COCCN2S(=O)(=O)N(C)C)o1 (stereo not drawn)	13.5
Fc1ccc(-c2noc(CN3CCC(c4cc[nH]n4)CC3)n2)cc1	-3.56
Cc1cc(C(=O)Nc2cnn(CC(F)(F)F)c2)nc(N2CCOCC2)n1	-13.4
CSc1nc(N)c2c(n1)N=C1COC(O)=C1C2c1cccc(O)c1 (stereo not drawn)	0.964
Cc1nc(CN(C)C2CCN(Cc3nc4ccccc4s3)C2)no1 (stereo not drawn)	-8.96
CCCC1CCCN(Cc2csc(-c3cnn(C)c3)n2)CC1 (stereo not drawn)	14.1
O=C(NCc1nnc2n1CCCCC2)N(CC1CCOC1)C1CC1 (stereo not drawn)	17.7
COC(=O)c1cc(C(=O)N2CCN(C)CC2)n(-c2ccccc2)n1	-6.12
CCS(=O)(=O)CCSc1ccc(Br)cc1	-6.15
